Each sequence was assayed against T1, Fibroblast Activation Protein Alpha (FAP) (Homo sapiens, UniProt Q12884) (assay: FAP substrate kinetics assay with naïve substrate library). Conditions: from the observed C-terminal product.
T1 sequence (Q12884 27-760 limits assumed): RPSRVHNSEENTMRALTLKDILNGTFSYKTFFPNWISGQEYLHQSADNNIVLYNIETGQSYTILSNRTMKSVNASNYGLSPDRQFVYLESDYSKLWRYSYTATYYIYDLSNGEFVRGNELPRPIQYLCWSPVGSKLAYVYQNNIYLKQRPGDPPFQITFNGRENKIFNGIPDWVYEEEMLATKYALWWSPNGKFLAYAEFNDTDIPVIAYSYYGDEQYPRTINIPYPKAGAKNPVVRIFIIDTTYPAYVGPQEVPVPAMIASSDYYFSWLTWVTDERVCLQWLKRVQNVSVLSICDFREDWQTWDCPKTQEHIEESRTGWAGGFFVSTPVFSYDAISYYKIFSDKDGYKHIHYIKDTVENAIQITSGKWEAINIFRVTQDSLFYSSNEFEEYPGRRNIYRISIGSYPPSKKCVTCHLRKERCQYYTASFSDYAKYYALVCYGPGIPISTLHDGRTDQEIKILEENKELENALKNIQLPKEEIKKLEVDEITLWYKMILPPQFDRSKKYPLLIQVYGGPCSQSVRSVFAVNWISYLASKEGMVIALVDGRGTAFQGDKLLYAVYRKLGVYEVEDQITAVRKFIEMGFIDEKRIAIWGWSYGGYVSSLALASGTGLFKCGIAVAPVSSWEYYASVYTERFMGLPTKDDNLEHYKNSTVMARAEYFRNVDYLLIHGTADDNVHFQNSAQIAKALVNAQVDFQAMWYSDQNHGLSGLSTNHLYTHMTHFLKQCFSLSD
Type: biochemical

Row | Dipeptidyl? (substrate product pair cleaved by FAP as dipeptidyl exopeptidase) | Sequence
1 | Yes | GPIMPATVSGGIEGR [SL11B_020678]
2 | Yes | GSNNGQFNMVPLVPR [SL11C_037297]
3 | Yes | GPGVLSEKHAGIEGR [SL11B_022414]
4 | No | GSFHVPETHSWLVPR [SL11C_008744]

Reference: publication doi:10.1101/2025.10.06.680748v1 (bioRxiv, 2025)
